Test results published in patent US20250120372A1, “HUMANIZED MOUSE MODEL OF FIBROSIS” (The Jackson Laboratory, priority 2021, published 2025).

Columns and labels:
NSG-SGM3 BLT mice [1] = conditions: mouse, in vivo
Description: SLG20 alginate 500 μm diameter spheres (“alginate spheres,” 0.5 ml total implant volume) were implanted into the intraperitoneal (IP) space of pro-fibrotic C57BL/6 mice and various humanized mouse models, retained for 28 days, and analyzed for degree of fibrosis upon alginate sphere retrieval. […] Experiments repeated at least 3 times.
Implanted mice were anesthetized with 3% isoflurane in oxygen and their abdomens were shaved and sterilized using betadine and isopropanol. Preoperatively, all mice received 0.05 mg/kg buprenorphine and 0.2 mL of 0.9% saline SC for pre-surgery analgesia and hydration. A midline incision (0.5 mm) was made and the peritoneal lining was exposed using blunt dissection. The peritoneal wall was then grasped with forceps and a 0.5-1 mm incision was made along the linea alba. 500 μL of spheres were then loaded into a sterile pipette and implanted into the intraperitoneal (IP) space. The incision was then closed using 5-0 PDS II absorbable sutures, and the skin was closed using wound clips and VetBond tissue glue. […] For macrophage depletion, clodrosomes (200 μL/mouse) (Encapsula NanoSciences, Nashville, TN) were injected IP starting at −3 days (prior to implant day 0), and for every 7 days thereafter (on days −3, 4, and 11). […]

NSG-SGM3 BLT mice [2] = conditions: mouse, in vivo, sc
Description: All wild type male immune-competent C57BL/6 mice or immunodeficient strains used for producing humanized models (described below) were ordered pathogen-free from The Jackson Laboratory (Bar Harbor, ME). Implanted mice were anesthetized with 3% isoflurane in oxygen and their abdomens were shaved and sterilized using betadine and isopropanol. Preoperatively, all mice received 0.05 mg/kg buprenorphine and 0.2 mL of 0.9% saline SC for pre-surgery analgesia and hydration.
For phase contrast imaging retrieved materials were gently washed using Krebs buffer and transferred into 35 mm petri dishes for phase contrast microscopy using an EVOS XL microscope (Advanced Microscopy Group). For bright-field imaging of retrieved materials, samples were gently washed using Krebs buffer and transferred into 35 mm petri dishes for bright-field imaging using a Leica Stereoscopic microscope.
Retrieved material-containing tissue (intraperitoneal and/or subcutaneous) was fixed overnight using 4% paraformaldehyde at 4° C. After fixation, alginate sphere or retrieved tissue samples were washed using 70% alcohol. The materials were then paraffin embedded, sectioned at 5 μm thickness and stained according to standard histological (H&E or Masson's Trichrome) methods.

| fibrotic encapsulation upon retrieval (NSG-SGM3 BLT mice [2]) | Substance | FBR / fibrosis (NSG-SGM3 BLT mice [1]) |
| --- | --- | --- |
|  | polydimethylsiloxane [PDMS 5 mm molded discs] | fibrosis of synthetic biomaterial polymer implants was observed |
| prominent fibrotic encapsulation | polystyrene [Polystyrene spheres] | fibrosis of synthetic biomaterial polymer implants was observed |
